Source: patent US20250163104A1, “MACROCYCLIC IMMUNOMODULATORS” (priority 2021, published 2025)
Where a SMILES comes first, the peptide text is derived from it. Bridges are numbered along the chain shown (N, C = ends). [ ]: non-standard residue; d: D form. The star is where a group is joined. Phe(4-COOH) = N[C@@H](Cc1ccc(C(=O)O)cc1)C(=O)O; Bip = N[C@@H](Cc1ccc(-c2ccccc2)cc1)C(=O)O; Gly(cPent) = N[C@H](C(=O)O)C1CCCC1; Cha = N[C@@H](CC1CCCCC1)C(=O)O; Cit = NC(=O)NCCC[C@H](N)C(=O)O; Gly(cPr) = N[C@H](C(=O)O)C1CC1; Carboxymethyl = O=C(O)C*; Orn = NCCC[C@H](N)C(=O)O; Dab = NCC[C@H](N)C(=O)O; Dap = NC[C@H](N)C(=O)O

target: T1, human PD-1 / PD-L1-Ig binding on Jurkat cell line over-expressing human PD-1 (Jurkat-PD-1) (Homo sapiens, UniProt Q15116); assay: Jurkat-PD-1 Cell Binding High-Content Screening Assay (CBA); type: cell-based; conditions: Jurkat HPD1_PDL1 IC50, Jurkat-PD-1 cells, PE-labeled PD-L1-Ig 20 nM final
T1 construct: expressed in transfected cells; host or cells: Jurkat
Procedure, shortened: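 Read-out: high-content imaging of PE-tagged PD-L1-Ig bound to Jurkat cells overexpressing human PD-1, after fixation with 4% paraformaldehyde and Hoechst 33342 nuclear staining. Ligand was used at 20 nM final for 1 hour, after a 2 h compound exposure at 37° C in serum-containing DMEM.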

T1 sequence (Q15116 25-288): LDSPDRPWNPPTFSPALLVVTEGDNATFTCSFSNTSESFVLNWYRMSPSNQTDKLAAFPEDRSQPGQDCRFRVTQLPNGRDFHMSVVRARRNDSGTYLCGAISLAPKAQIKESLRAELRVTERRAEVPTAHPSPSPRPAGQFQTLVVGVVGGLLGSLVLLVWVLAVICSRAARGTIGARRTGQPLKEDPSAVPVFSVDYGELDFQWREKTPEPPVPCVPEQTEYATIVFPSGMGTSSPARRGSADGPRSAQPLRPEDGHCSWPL

Row | Structure (SMILES) | IC50 [nM]
1 | CC(C)C[C@H]1NC(=O)[C@H](CCCN)NC(=O)[C@H](CN)NC(=O)[C@H](Cc2ccc(-c3ccccc3)cc2)NC(=O)[C@H](C(C)C)NC(=O)[C@H](Cc2c[nH]c3ccccc23)NC(=O)[C@H](CC(=O)O)NC(=O)[C@H](Cc2ccc(OCC(=O)O)cc2)NC(=O)[C@H](Cc2ccncc2)NC(=O)CSC[C@@H](C(=O)N[C@@H](C)C(N)=O)NC(=O)[C@H]([C@@H](C)O)NC(=O)[C@H](C(C)C)NC(=O)[C@H](CC2CCCCC2)NC(=O)[C@H](CCN)NC1=O [Compound 1372] | 12.6
2 | CC(C)C[C@H]1NC(=O)[C@H](CCCN)NC(=O)[C@H](CCCCN)NC(=O)[C@H](Cc2ccc(-c3ccccc3)cc2)NC(=O)[C@H](C(C)C)NC(=O)[C@H](Cc2c[nH]c3ccccc23)NC(=O)[C@H](CC(=O)O)NC(=O)[C@H](Cc2ccc(OCC(=O)O)cc2)NC(=O)[C@H](Cc2ccncc2)NC(=O)CSC[C@@H](C(=O)N[C@@H](C)C(N)=O)NC(=O)[C@H]([C@@H](C)O)NC(=O)[C@H](C(C)C)NC(=O)[C@H](CC2CCCCC2)NC(=O)[C@H](CCN)NC1=O [Compound 1373] | 11.1

same assay, conditions: Jurkat-PD-1 cells, PE-labeled PD-L1-Ig 20 nM final; read-out: Jurkat HPD1_PDL1 IC50

Row | Structure (SMILES) | IC50 [nM]
3 | CC(C)C[C@H]1NC(=O)[C@H](CCCN)NC(=O)[C@H](CCCNC(N)=O)NC(=O)[C@H](Cc2ccc(-c3ccccc3)cc2)NC(=O)[C@H](C2CCCC2)NC(=O)[C@H](Cc2c[nH]c3ccccc23)NC(=O)[C@H](CC(=O)O)NC(=O)[C@H](Cc2ccc(OCC(=O)O)cc2)NC(=O)[C@H](CN)NC(=O)CSC[C@@H](C(=O)N[C@@H](C)C(N)=O)NC(=O)[C@H]([C@@H](C)O)NC(=O)[C@H](C(C)C)NC(=O)[C@H](CC2CCCCC2)NC(=O)[C@H](CCN)NC1=O [Compound 1368] ({CH2CO}-[Dap]Y(Carboxymethyl)DW[Gly(cPent)][Bip][Cit][Orn][dL][Dab][Cha]VTCA-NH2; thioether N-14) | 7.1
4 | CC(C)C[C@H]1NC(=O)[C@H](CCCN)NC(=O)[C@H](CCCNC(N)=O)NC(=O)[C@H](Cc2ccc(-c3ccccc3)cc2)NC(=O)[C@H](C2CC2)NC(=O)[C@H](Cc2c[nH]c3ccccc23)NC(=O)[C@H](CC(=O)O)NC(=O)[C@H](Cc2ccc(OCC(=O)O)cc2)NC(=O)[C@H](CN)NC(=O)CSC[C@@H](C(=O)N[C@@H](C)C(N)=O)NC(=O)[C@H]([C@@H](C)O)NC(=O)[C@H](C(C)C)NC(=O)[C@H](CC2CCCCC2)NC(=O)[C@H](CCN)NC1=O [Compound 1369] ({CH2CO}-[Dap]Y(Carboxymethyl)DW[Gly(cPr)][Bip][Cit][Orn][dL][Dab][Cha]VTCA-NH2; thioether N-14) | 19.9
5 | CC[C@H](C)[C@@H]1NC(=O)[C@H](Cc2ccc(-c3ccccc3)cc2)NC(=O)[C@H](CC(C)C)NC(=O)[C@H](Cc2c[nH]c3ccccc23)NC(=O)[C@H](CC(=O)O)NC(=O)[C@H](Cc2ccc(OCC(=O)O)cc2)NC(=O)[C@H](CN)NC(=O)CSC[C@@H](C(=O)N[C@@H](C)C(N)=O)NC(=O)[C@H]([C@@H](C)O)NC(=O)[C@H](C(C)C)NC(=O)[C@H](CC(C)C)NC(=O)[C@H](CCN)NC(=O)[C@@H](CC(C)C)NC(=O)[C@H](CCCN)NC1=O [Compound 1370] ({CH2CO}-[Dap]Y(Carboxymethyl)DWL[Bip]I[Orn][dL][Dab]LVTCA-NH2; thioether N-14) | 6.4
6 | CC(C)C[C@H]1NC(=O)[C@H](CCCN)NC(=O)[C@H](CCCN)NC(=O)[C@H](Cc2ccc(-c3ccccc3)cc2)NC(=O)[C@H](C(C)C)NC(=O)[C@H](Cc2c[nH]c3ccccc23)NC(=O)[C@H](CC(=O)O)NC(=O)[C@H](Cc2ccc(OCC(=O)O)cc2)NC(=O)[C@H](CN)NC(=O)CSC[C@@H](C(=O)N[C@@H](C)C(N)=O)NC(=O)[C@H]([C@@H](C)O)NC(=O)[C@H](C(C)C)NC(=O)[C@H](CC2CCCCC2)NC(=O)[C@H](CCN)NC1=O [Compound 1374] | 9.8
7 | CC(C)C[C@H]1NC(=O)[C@H](CCCN)NC(=O)[C@H](CN)NC(=O)[C@H](Cc2ccc(-c3ccccc3)cc2)NC(=O)[C@H](C(C)C)NC(=O)[C@H](Cc2c[nH]c3ccccc23)NC(=O)[C@H](CC(=O)O)NC(=O)[C@H](Cc2ccc(OCC(=O)O)cc2)NC(=O)[C@H](CN)NC(=O)CSC[C@@H](C(=O)N[C@@H](C)C(N)=O)NC(=O)[C@H]([C@@H](C)O)NC(=O)[C@H](C(C)C)NC(=O)[C@H](CC2CCCCC2)NC(=O)[C@H](CCN)NC1=O [Compound 1376] | 7.2
8 | CC(C)C[C@H]1NC(=O)[C@H](CCCN)NC(=O)[C@H](CCCCN)NC(=O)[C@H](Cc2ccc(-c3ccccc3)cc2)NC(=O)[C@H](C(C)C)NC(=O)[C@H](Cc2c[nH]c3ccccc23)NC(=O)[C@H](CC(=O)O)NC(=O)[C@H](Cc2ccc(OCC(=O)O)cc2)NC(=O)[C@H](CN)NC(=O)CSC[C@@H](C(=O)N[C@@H](C)C(N)=O)NC(=O)[C@H]([C@@H](C)O)NC(=O)[C@H](C(C)C)NC(=O)[C@H](CC2CCCCC2)NC(=O)[C@H](CCN)NC1=O [Compound 1377] ({CH2CO}-[Dap]Y(Carboxymethyl)DWV[Bip]K[Orn][dL][Dab][Cha]VTCA-NH2; thioether N-14) | 8.9
9 | CC(C)C[C@H]1NC(=O)[C@H](CCCN)NC(=O)[C@H](CCCN)NC(=O)[C@H](Cc2ccc(-c3ccccc3)cc2)NC(=O)[C@H](C(C)C)NC(=O)[C@H](Cc2c[nH]c3ccccc23)NC(=O)[C@H](CC(=O)O)NC(=O)[C@H](Cc2ccc(O)cc2)NC(=O)[C@H](CC(N)=O)NC(=O)CSC[C@@H](C(=O)N[C@@H](C)C(N)=O)NC(=O)[C@H]([C@@H](C)O)NC(=O)[C@H](C(C)C)NC(=O)[C@H](CC2CCCCC2)NC(=O)[C@H](CCN)NC1=O [Compound 1378] ({CH2CO}-NYDWV[Bip][Orn][Orn][dL][Dab][Cha]VTCA-NH2; thioether N-14) | 13.7
10 | CC(C)C[C@H]1NC(=O)[C@H](CCCN)NC(=O)[C@H](CCN)NC(=O)[C@H](Cc2ccc(-c3ccccc3)cc2)NC(=O)[C@H](C(C)C)NC(=O)[C@H](Cc2c[nH]c3ccccc23)NC(=O)[C@H](CC(=O)O)NC(=O)[C@H](Cc2ccc(O)cc2)NC(=O)[C@H](CC(N)=O)NC(=O)CSC[C@@H](C(=O)N[C@@H](C)C(N)=O)NC(=O)[C@H]([C@@H](C)O)NC(=O)[C@H](C(C)C)NC(=O)[C@H](CC2CCCCC2)NC(=O)[C@H](CCN)NC1=O [Compound 1379] | 33
11 | CC(C)C[C@H]1NC(=O)[C@H](CCCN)NC(=O)[C@H](CN)NC(=O)[C@H](Cc2ccc(-c3ccccc3)cc2)NC(=O)[C@H](C(C)C)NC(=O)[C@H](Cc2c[nH]c3ccccc23)NC(=O)[C@H](CC(=O)O)NC(=O)[C@H](Cc2ccc(O)cc2)NC(=O)[C@H](CC(N)=O)NC(=O)CSC[C@@H](C(=O)N[C@@H](C)C(N)=O)NC(=O)[C@H]([C@@H](C)O)NC(=O)[C@H](C(C)C)NC(=O)[C@H](CC2CCCCC2)NC(=O)[C@H](CCN)NC1=O [Compound 1380] | 16.8
12 | CC(C)C[C@H]1NC(=O)[C@H](CCCN)NC(=O)[C@H](CCCCN)NC(=O)[C@H](Cc2ccc(-c3ccccc3)cc2)NC(=O)[C@H](C(C)C)NC(=O)[C@H](Cc2c[nH]c3ccccc23)NC(=O)[C@H](CC(=O)O)NC(=O)[C@H](Cc2ccc(O)cc2)NC(=O)[C@H](CC(N)=O)NC(=O)CSC[C@@H](C(=O)N[C@@H](C)C(N)=O)NC(=O)[C@H]([C@@H](C)O)NC(=O)[C@H](C(C)C)NC(=O)[C@H](CC2CCCCC2)NC(=O)[C@H](CCN)NC1=O [Compound 1381] ({CH2CO}-NYDWV[Bip]K[Orn][dL][Dab][Cha]VTCA-NH2; thioether N-14) | 13.3
13 | CC(C)C[C@H]1NC(=O)[C@H](CCCN)NC(=O)[C@H](CCCN)NC(=O)[C@H](Cc2ccc(-c3ccccc3)cc2)NC(=O)[C@H](C(C)C)NC(=O)[C@H](Cc2c[nH]c3ccccc23)NC(=O)[C@H](CC(=O)O)NC(=O)[C@H](Cc2ccc(C(=O)O)cc2)NC(=O)[C@H](Cc2ccc(OCC(=O)O)cc2)NC(=O)CSC[C@@H](C(=O)N[C@@H](C)C(N)=O)NC(=O)[C@H]([C@@H](C)O)NC(=O)[C@H](C(C)C)NC(=O)[C@H](CC2CCCCC2)NC(=O)[C@H](CCN)NC1=O [Compound 1382] ({CH2CO}-Y(Carboxymethyl)[Phe(4-COOH)]DWV[Bip][Orn][Orn][dL][Dab][Cha]VTCA-NH2; thioether N-14) | 14
14 | CC(C)C[C@H]1NC(=O)[C@H](CCCN)NC(=O)[C@H](CCN)NC(=O)[C@H](Cc2ccc(-c3ccccc3)cc2)NC(=O)[C@H](C(C)C)NC(=O)[C@H](Cc2c[nH]c3ccccc23)NC(=O)[C@H](CC(=O)O)NC(=O)[C@H](Cc2ccc(C(=O)O)cc2)NC(=O)[C@H](Cc2ccc(OCC(=O)O)cc2)NC(=O)CSC[C@@H](C(=O)N[C@@H](C)C(N)=O)NC(=O)[C@H]([C@@H](C)O)NC(=O)[C@H](C(C)C)NC(=O)[C@H](CC2CCCCC2)NC(=O)[C@H](CCN)NC1=O [Compound 1383] | 19.1
15 | CC(C)C[C@H]1NC(=O)[C@H](CCCN)NC(=O)[C@H](CN)NC(=O)[C@H](Cc2ccc(-c3ccccc3)cc2)NC(=O)[C@H](C(C)C)NC(=O)[C@H](Cc2c[nH]c3ccccc23)NC(=O)[C@H](CC(=O)O)NC(=O)[C@H](Cc2ccc(C(=O)O)cc2)NC(=O)[C@H](Cc2ccc(OCC(=O)O)cc2)NC(=O)CSC[C@@H](C(=O)N[C@@H](C)C(N)=O)NC(=O)[C@H]([C@@H](C)O)NC(=O)[C@H](C(C)C)NC(=O)[C@H](CC2CCCCC2)NC(=O)[C@H](CCN)NC1=O [Compound 1384] | 11
16 | CC(C)C[C@H]1NC(=O)[C@H](CCCN)NC(=O)[C@H](CCCCN)NC(=O)[C@H](Cc2ccc(-c3ccccc3)cc2)NC(=O)[C@H](C(C)C)NC(=O)[C@H](Cc2c[nH]c3ccccc23)NC(=O)[C@H](CC(=O)O)NC(=O)[C@H](Cc2ccc(C(=O)O)cc2)NC(=O)[C@H](Cc2ccc(OCC(=O)O)cc2)NC(=O)CSC[C@@H](C(=O)N[C@@H](C)C(N)=O)NC(=O)[C@H]([C@@H](C)O)NC(=O)[C@H](C(C)C)NC(=O)[C@H](CC2CCCCC2)NC(=O)[C@H](CCN)NC1=O [Compound 1385] ({CH2CO}-Y(Carboxymethyl)[Phe(4-COOH)]DWV[Bip]K[Orn][dL][Dab][Cha]VTCA-NH2; thioether N-14) | 6.1
